Experiments:
[1] = tested on: Surinam grass; assay: Test C pre-/postemergence test; type: in vivo, Brachiaria decumbens
Outline: (§1)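 Test chemicals were formulated with surfactant in a non-phytotoxic solvent and sprayed both on freshly planted seeds (preemergence) and on 1- to 4-leaf plants of 2–18 cm (postemergence). Flooded-paddy pots received compound directly into 3 cm of standing water, maintained for the test.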

[2] = tested on: giant foxtail; assay: Test C pre-/postemergence test; type: in vivo, Setaria faberii
Outline: as §1

[3] = tested on: lambsquarters; assay: Test C pre-/postemergence test; type: in vivo, Chenopodium album
Outline: as §1

[4] = tested on: Goosegrass; assay: Test C pre-/postemergence test; type: in vivo, Eleusin indica
Outline: as §1

[5] = tested on: johnsongrass; assay: Test C pre-/postemergence test; type: in vivo, Sorghum halepense
Outline: as §1

[6] = tested on: bermudagrass; assay: Test C pre-/postemergence test; type: in vivo, Cynodon dactylon
Outline: as §1

[7] = tested on: rice; assay: Test C flooded paddy test; type: in vivo, Oryza sativa; settings: Flood
Outline: (§2)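 Flooded 3 cm over soil; compound into paddy water; depth kept constant. Greenhouse 13–15 d.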

[8] = tested on: duck salad; assay: Test C flooded paddy test; type: in vivo, Heteranthera limosa; settings: Flood
Outline: as §2

[9] = tested on: wild oat; assay: Test C pre-/postemergence test; type: in vivo, Avena fatua
Outline: as §1

[10] = tested on: giant foxtail; assay: Test A pre-/postemergence greenhouse test; type: in vivo, Setaria faberi; settings: for Foxtail, Giant plant response rating: 0 to 100 scale
Outline: (§3)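 Seeds sown in a loam soil–sand blend got a preemergence directed soil spray of compound in a non-phytotoxic solvent mixture containing surfactant. Postemergence sprays of the same formulation went at the same time onto plants 2–10 cm tall at the one- to two-leaf stage. Injury was scored visually against untreated controls after about ten days in the greenhouse.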

[11] = tested on: common ragweed; assay: Test C pre-/postemergence test; type: in vivo, Ambrosia elation
Outline: as §1

[12] = tested on: barnyardgrass; assay: Test C flooded paddy test; type: in vivo, Echinochloa crus-galli; settings: Flood
Outline: as §2

[13] = tested on: velvetleaf; assay: Test A pre-/postemergence greenhouse test; type: in vivo, Abutilon theophrasti; settings: for Velvetleaf plant response rating: 0 to 100 scale
Outline: as §3

[14] = tested on: redroot pigweed; assay: Test A pre-/postemergence greenhouse test; type: in vivo, Amaranthus retroflexus; settings: for Pigweed plant response rating: 0 to 100 scale
Outline: as §3

[15] = tested on: corn; assay: Test A pre-/postemergence greenhouse test; type: in vivo, Zea mays; settings: for Corn plant response rating: 0 to 100 scale
Outline: as §3

[16] = tested on: wheat; assay: Test A pre-/postemergence greenhouse test; type: in vivo, Triticum aestivum; settings: for Wheat plant response rating: 0 to 100 scale
Outline: as §3

[17] = tested on: eastern black nightshade; assay: Test C pre-/postemergence test; type: in vivo, Solanum ptycanthum
Outline: as §1

[18] = tested on: velvetleaf; assay: Test C pre-/postemergence test; type: in vivo, Abutilon theophrasti
Outline: as §1

[19] = 62 g ai/ha, Preemergence, scale 0 to 100
[20] = 125 g ai/ha, preemergence, scale 0 (no effect) to 100 (complete control)
[21] = Preemergence, 31 g ai/ha, scale 0 to 100 (0 no effect, 100 complete control)
[22] = preemergence, 250 g ai/ha, scale 0 (no effect) to 100 (complete control)
[23] = 62 g ai/ha, scale 0 to 100 (0 no effect, 100 complete control)
[24] = 250 g ai/ha, scale 0 to 100, 0 no effect, 100 complete control, 13 to 15 days
[25] = Postemergence, 125 g ai/ha, 0 to 100 scale where 0 is no effect and 100 is complete control
[26] = Postemergence, 500 g ai/ha, 0 is no effect, 100 is complete control
[27] = Preemergence, 125 g ai/ha, 0 no effect, 100 complete control
[28] = Preemergence, 500 g ai/ha, 0 no effect, 100 complete control

## C#CCOc1c(CS(=O)(=O)c2cccc[n+]2[O-])c(C(F)(F)F)nn1C [Compound 103]
[1]; [19]
  Surinam Grass plant response rating: 80
[1]; [20]
  Surinam Grass plant response rating: 90
[1]; [21]
  Plant response rating, Surinam Grass: 0
[1]; [22]
  Surinam Grass plant response rating: 95
[2]; [19]
  Foxtail, Giant plant response rating: 95
[2]; [20]
  Foxtail, Giant plant response rating: 100
[2]; [21]
  Plant response rating, Foxtail, Giant: 55
[2]; [22]
  Foxtail, Giant plant response rating: 100
[3]; [19]
  Lambsquarters plant response rating: 50
[3]; [20]
  Lambsquarters plant response rating: 50
[3]; [21]
  Plant response rating, Lambsquarters: 10
[3]; [22]
  Lambsquarters plant response rating: 95
[4]; [19]
  Goosegrass plant response rating: 100
[4]; [20]
  Goosegrass plant response rating: 100
[4]; [21]
  Plant response rating, Goosegrass: 50
[4]; [22]
  Goosegrass plant response rating: 100
[5]; [19]
  Johnsongrass plant response rating: 100
[5]; [20]
  Johnsongrass plant response rating: 100
[5]; [21]
  Plant response rating, Johnsongrass: 30
[5]; [22]
  Johnsongrass plant response rating: 100
[6]; 62 g ai/ha, Preemergence, scale 0 to 100 (0 no effect, 100 complete control)
  Bermudagrass plant response rating: 100
[6]; [20]
  Bermudagrass plant response rating: 100
[6]; [21]
  Plant response rating, Bermudagrass: 40
[6]; [22]
  Bermudagrass plant response rating: 100
[7]; [23]
  Plant response rating, Rice: 0
[7]; [24]
  Plant response rating, Rice: 0
[8]; [23]
  Plant response rating, Ducksalad: 20
[8]; [24]
  Plant response rating, Ducksalad: 70
[9]; [19]
  Oat, Wild plant response rating: 60
[9]; [20]
  Oat, Wild plant response rating: 100
[9]; [21]
  Plant response rating, Oat, Wild: 40
[9]; [22]
  Oat, Wild plant response rating: 100
[10]; [25]
  Plant response rating, Foxtail, Giant: 80
[10]; [26]
  Foxtail, Giant plant response rating: 90
[10]; [27]
  Foxtail, Giant plant response rating: 80
[10]; [28]
  Foxtail, Giant plant response rating: 100
[11]; [19]
  Ragweed plant response rating: 0
[11]; [20]
  Ragweed plant response rating: 80
[11]; [21]
  Plant response rating, Ragweed: 0
[11]; [22]
  Ragweed plant response rating: 85
[12]; [23]
  Plant response rating, Barnyardgrass: 0
[12]; [24]
  Plant response rating, Barnyardgrass: 0
[13]; [25]
  Plant response rating, Velvetleaf: 40
[13]; [26]
  Velvetleaf plant response rating: 70
[13]; [27]
  Velvetleaf plant response rating: 20
[13]; [28]
  Velvetleaf plant response rating: 80
[14]; [25]
  Plant response rating, Pigweed: 30
[14]; [26]
  Pigweed plant response rating: 60
[14]; [27]
  Pigweed plant response rating: 60
[14]; [28]
  Pigweed plant response rating: 100
[15]; [25]
  Plant response rating, Corn: 0
[15]; [26]
  Corn plant response rating: 60
[15]; [27]
  Corn plant response rating: 0
[15]; [28]
  Corn plant response rating: 60
[16]; [25]
  Plant response rating, Wheat: 20
[16]; [26]
  Wheat plant response rating: 50
[16]; [27]
  Wheat plant response rating: 10
[16]; [28]
  Wheat plant response rating: 80
[17]; [19]
  Nightshade plant response rating: 90
[17]; [20]
  Nightshade plant response rating: 90
[17]; [21]
  Plant response rating, Nightshade: 90
[17]; [22]
  Nightshade plant response rating: 98
[18]; [19]
  Velvetleaf plant response rating: 55
[18]; [20]
  Velvetleaf plant response rating: 80
[18]; [21]
  Plant response rating, Velvetleaf: 0
[18]; [22]
  Velvetleaf plant response rating: 100
